# EP0606463B1, “NEUROMEDIN B RECEPTOR ANTAGONISTS” (The Administrators of The Tulane Educational Fund, priority 1992, dated 1994)
# Where a SMILES comes first, the peptide text is derived from it. Bridges are numbered along the chain shown (N, C = ends). [ ]: non-standard residue; d: D form. 2Nal = N[C@@H](Cc1ccc2ccccc2c1)C(=O)O; d2Nal = N[C@H](Cc1ccc2ccccc2c1)C(=O)O
# Columns and labels:
# [1] = tested on: PYY receptor; experiment: PYY membrane receptor assay; assay type: binding, rat; details: at 1 µM
# [2] = target: T1, GRP Receptor (Rattus norvegicus, UniProt P52500); experiment: Amylase release from rat pancreatic acini; assay type: cell-based
# T1 construct: from tissue; host or cells: dispersed pancreatic acini
# [3] = target: T2, NMB receptors on rat olfactory bulb membranes (Rattus norvegicus, UniProt P24053); experiment: NMB membrane receptor assay (rat olfactory bulb membranes); assay type: binding
# T2 construct: Membranes were prepared from rat olfactory bulb (NMB membrane receptor assay); from tissue; host or cells: rat olfactory bulb membranes
# T2 sequence (P24053 1-390): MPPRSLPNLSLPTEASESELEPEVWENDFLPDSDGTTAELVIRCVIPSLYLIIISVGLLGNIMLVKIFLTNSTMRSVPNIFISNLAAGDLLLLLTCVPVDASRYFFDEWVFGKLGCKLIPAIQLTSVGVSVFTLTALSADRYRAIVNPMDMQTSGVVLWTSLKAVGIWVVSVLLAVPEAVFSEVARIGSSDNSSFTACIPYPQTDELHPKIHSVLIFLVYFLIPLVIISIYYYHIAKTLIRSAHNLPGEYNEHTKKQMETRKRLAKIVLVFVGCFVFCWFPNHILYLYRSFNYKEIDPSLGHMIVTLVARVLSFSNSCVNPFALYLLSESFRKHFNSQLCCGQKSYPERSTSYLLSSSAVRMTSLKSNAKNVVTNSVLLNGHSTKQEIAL
# [4] = target: T3, sigma opioid receptor (Cavia porcellus, UniProt Q60492); experiment: sigma opioid membrane receptor assay; assay type: binding, guinea pig; details: at 1 µM
# T3 construct: guinea pig cerebral (N1, histamine H1, and sigma opioid membrane receptor assays); from tissue; host or cells: guinea pig cerebral membranes
# [5] = target: T4, NMB receptors on C-6 glioblastoma cells (Rattus norvegicus, UniProt P24053); experiment: NMB-stimulated [3H]IP in C-6 glioblastoma cells; assay type: cell-based
# T4 construct: endogenous in cells; host or cells: rat glioblastoma C-6 cells
# T4 sequence (P24053 1-390): T2 sequence (P24053 1-390)
# Description: Total phosphoinositides in C-6 cells and in NMB-R transfected cells were determined as described previously, with minor modifications [Benya, R. V. et al. Mol. Pharmacol. 42:1058 (1992); and Wang, L-H. et al. Biochem. J. 286:641 (1992)]. Cells were grown to confluence in 24-well plates and then loaded with 100 µCi/ml myo-[2-^3H]inositol in Dulbecco's modified essential medium with 2% fetal bovine serum at 37°C for 48 hrs. Cells were washed and incubated in phosphoinositide buffer (standard buffer additionally containing 10 mM LiCl, 20 mM HEPES, 2 mM CaCl2, 2% BSA, and 1.2 mM MgSO4) for 15 min and then […] Reactions were halted using ice-cold 1% HCl in methanol, and the inositol phosphates (IP) were isolated as described previously [Bologna, M. et al. Cancer 63:1714 (1989); and Endo, T. et al. J. Endocrinol. 131:313 (1991)]. Briefly, after loading of the anion exchange column, free [^3H]glycerophosphorylinositol was removed by washing with 5 mM disodium tetraborate in 60 mM sodium formate. Total [^3H]inositol phosphates were then eluted using 100 mM formic acid in 1.0 M ammonium formate as described previously [Benya, R. V. et al. Mol. Pharmacol. 42:1058 (1992); and Wang, L-H. et al. Biochem. J. 286:641 (1992)].
# [6] = target: T5, endothelinA (Rattus norvegicus, UniProt P26684); experiment: EtA membrane receptor assay (A10 smooth muscle cells); assay type: binding; details: at 1 µM
# T5 construct: A10 smooth muscle cells (EtA membrane receptor assay); endogenous in cells; host or cells: A10 smooth muscle cells (membranes)
# [7] = target: T6, CCKB (Rattus norvegicus, UniProt P30553); experiment: CCKB membrane receptor assay; assay type: binding; details: at 1 µM
# T6 construct: rat cerebral cortex (CCKB, PYY, neurotensin); from tissue; host or cells: rat cerebral cortex membranes
# [8] = tested on: α1- adrenergic; experiment: alpha1-adrenergic membrane receptor assay; assay type: binding, rat; details: at 1 µM
# [9] = target: T7, N-methyl D-aspartate receptors (Rattus norvegicus, UniProt P35439); experiment: N-methyl-D-aspartate membrane receptor assay; assay type: binding; details: at 1 µM
# T7 construct: from tissue; host or cells: rat cerebral cortex membranes
# [10] = tested on: TRH receptor; experiment: TRH membrane assay; assay type: binding, rat; details: at 1 µM
# T1 sequence (P52500 whole entry): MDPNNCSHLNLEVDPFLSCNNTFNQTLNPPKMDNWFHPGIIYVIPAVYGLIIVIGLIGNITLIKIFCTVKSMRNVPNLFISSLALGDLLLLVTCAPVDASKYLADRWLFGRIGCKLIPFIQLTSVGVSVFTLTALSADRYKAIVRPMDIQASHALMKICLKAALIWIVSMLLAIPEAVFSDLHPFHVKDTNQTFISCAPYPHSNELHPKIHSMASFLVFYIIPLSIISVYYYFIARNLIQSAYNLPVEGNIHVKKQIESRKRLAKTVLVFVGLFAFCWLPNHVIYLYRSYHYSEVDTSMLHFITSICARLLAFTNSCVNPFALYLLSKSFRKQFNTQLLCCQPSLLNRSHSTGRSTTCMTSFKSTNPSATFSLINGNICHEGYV
# T5 sequence (P26684 21-426): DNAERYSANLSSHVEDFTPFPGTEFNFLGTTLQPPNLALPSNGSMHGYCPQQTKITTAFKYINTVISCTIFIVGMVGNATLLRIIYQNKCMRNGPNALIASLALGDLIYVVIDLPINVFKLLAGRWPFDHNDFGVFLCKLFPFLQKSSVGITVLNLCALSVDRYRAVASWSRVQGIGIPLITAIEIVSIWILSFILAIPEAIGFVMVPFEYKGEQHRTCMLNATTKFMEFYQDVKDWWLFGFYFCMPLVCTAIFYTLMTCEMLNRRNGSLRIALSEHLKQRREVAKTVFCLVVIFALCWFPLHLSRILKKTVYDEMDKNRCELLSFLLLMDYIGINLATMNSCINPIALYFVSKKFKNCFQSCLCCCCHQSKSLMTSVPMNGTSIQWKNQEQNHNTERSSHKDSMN
# T6 sequence (P30553 whole entry): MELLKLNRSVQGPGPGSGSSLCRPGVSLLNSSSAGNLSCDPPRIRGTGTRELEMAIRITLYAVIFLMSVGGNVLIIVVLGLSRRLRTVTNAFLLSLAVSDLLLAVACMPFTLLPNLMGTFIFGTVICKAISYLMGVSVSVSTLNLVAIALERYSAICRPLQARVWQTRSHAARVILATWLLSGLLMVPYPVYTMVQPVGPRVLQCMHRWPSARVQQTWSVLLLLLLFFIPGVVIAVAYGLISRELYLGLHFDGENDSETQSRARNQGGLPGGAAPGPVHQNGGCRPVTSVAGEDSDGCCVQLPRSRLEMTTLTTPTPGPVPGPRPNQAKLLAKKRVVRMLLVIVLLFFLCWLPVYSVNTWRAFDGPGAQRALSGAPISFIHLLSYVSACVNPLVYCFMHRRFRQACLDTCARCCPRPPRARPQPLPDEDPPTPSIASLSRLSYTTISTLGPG
# T3 sequence (Q60492 whole entry): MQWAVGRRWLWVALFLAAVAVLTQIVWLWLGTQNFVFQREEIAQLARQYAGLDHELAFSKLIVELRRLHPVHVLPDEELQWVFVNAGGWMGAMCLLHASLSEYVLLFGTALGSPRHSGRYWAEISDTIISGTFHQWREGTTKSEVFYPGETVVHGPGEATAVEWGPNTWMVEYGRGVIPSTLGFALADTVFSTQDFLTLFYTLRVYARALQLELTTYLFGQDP
smiles,measurement,setting,value
"CC(C)[C@@H]1NC(=O)[C@H](CCCCN)NC(=O)[C@@H](Cc2c[nH]c3ccccc23)NC(=O)[C@H](Cc2ccc(O)cc2)NC(=O)[C@@H](NC(=O)[C@H](N)Cc2ccc3ccccc3c2)CSSC[C@@H](C(=O)N[C@@H](Cc2ccc3ccccc3c2)C(N)=O)NC1=O [Analog #1, D-Nal-Cys-Tyr-D-Trp-Lys-Val-Cys-Nal-NH2] (H-[d2Nal]CY[dW]KVC[2Nal]-NH2; disulfide 2-7; N-terminus assumed)",inhibition of binding to PYY,[1],did not inhibit binding
same,Rat Pancreatic Acini Amylase Release Alone (10µM),"[2]; analog 10 µM alone, no-additive control 4 ± 1",5 ± 1 % total
same,Rat Pancreatic Acini Amylase Release Plus Bn(0.3 nM),"[2]; analog 10 µM plus Bn 0.3 nM, Bn without analog 15 ± 1",15 ± 2 % total
same,effect on Bn-stimulated amylase release,"[2]; rat pancreatic acini, Bn 0.3 nM, peptide 10 µM",did not inhibit
same,inhibition at 1 µM,"[3]; at 1 µM, read-out: inhibition of binding to NMB receptors on rat olfactory bulb membranes",> 95%
same,fold greater affinity for NMB receptors than mu opioid receptors,[3]; rat olfactory bulb versus rat forebrain membranes (Table 4),10 fold
same,inhibition of binding to sigma opioid,[4],did not inhibit binding
same,"[^3H]IP, Peptide Added NMB (10 nM)","[5]; C-6 glioblastoma cells, analog 10 µM plus NMB 10 nM",7.5 ± 1.0 dpm x 10^3
same,"[^3H]IP, Peptide Added None","[5]; C-6 glioblastoma cells, analog 10 µM, no agonist, control 7.2±1.0",7.4 ± 1.3 dpm x 10^3
same,effect on NMB-stimulated increases in [^3H]IP in C-6 glioblastoma cells,[5]; Table 3,inhibited
same,inhibition of binding to endothelinA,[6],did not inhibit binding
same,inhibition of binding to CCKB,[7],did not inhibit binding
same,inhibition of binding to α1- adrenergic,[8],did not inhibit binding
same,inhibition of binding to N-methyl D-aspartate receptors,[9],did not inhibit binding
same,inhibition of binding to TRH,[10],did not inhibit binding
